In data set [1] the test system is Mycosphaerella graminicola (Septoria tritici). The data set can be described thus: Mycosphaerella graminicola (Septoria tritici) / liquid culture (Septoria blotch). The data set is classed as cell-based. The following applies: Zymoseptoria tritici, growth inhibition determined photometrically 4-5 days after application, compared to untreated control. On the procedure: Example B5: Mycosphaerella graminicola (Septoria tritici)/Liquid Culture (Septoria blotch) Conidia of the fungus from cryogenic storage are directly mixed into nutrient broth (PDB potato dextrose broth). After placing a (DMSO) solution of test compound into a microtiter plate (96-well format), the nutrient broth containing the fungal spores is added. The test plates are incubated at 24° C. and the inhibition of growth is determined photometrically 4-5 days after application. […] […]-19.

Where only a bound is given, the exact number is not on record here.

As for `Cn1cc(Nc2cc3cn[nH]c3c(C(=O)NC3CCC3(C)C)n2)cn1` (stereo not shown) [Compound P-4, N-(2,2-dimethylcyclobutyl)-5-[(1-methylpyrazol-4-yl)amino]-1H-pyrazolo[3,4-c]pyridine-7-carboxamide], the melting point lay within 158 to 166 °C.

Consider `CC1(C)CCC1NC(=O)c1nc(Nc2cc(F)cc(F)c2)cc2cn[nH]c12` (stereo not shown) [Compound P-6, 5-(3,5-difluoroanilino)-N-(2,2-dimethylcyclobutyl)-1H-pyrazolo[3,4-c]pyridine-7-carboxamide], for which the melting point lay within 167 to 176 °C. In addition, the inhibition of growth at 20 ppm in data set [1] is at least 80%.

Turning to `CC1(C)CCC1NC(=O)c1nc(Nc2cc(F)nc(F)c2)cc2cc[nH]c12` (stereo not shown) [Compound P-2, 5-[(2,6-difluoro-4-pyridyl)amino]-N-(2,2-dimethylcyclobutyl)-1H-pyrrolo[2,3-c]pyridine-7-carboxamide], the melting point fell in the range of 115 to 148 °C. In data set [1], this compound registered an inhibition of growth at 20 ppm of at least 80%.

Consider `O=C(NC1CCC12CCCC2)c1nc(Nc2cncc(F)c2)cc2cc[nH]c12` (stereo not shown) [Compound P-17, 5-[(5-fluoro-3-pyridyl)amino]-N-spiro[3.4]octan-3-yl-1H-pyrrolo[2,3-c]pyridine-7-carboxamide], for which the melting point is 180 to 191 °C.

As for `CC1(C)CCC1NC(=O)c1nc(Nc2cc(F)cc(F)c2)cc2cc[nH]c12` (stereo not shown) [Compound P-1, 5-(3,5-difluoroanilino)-N-(2,2-dimethylcyclobutyl)-1H-pyrrolo[2,3-c]pyridine-7-carboxamide], the melting point fell in the range of 65 to 89 °C. This compound returned an inhibition of growth at 20 ppm in data set [1] of at least 80%.

In turn, `O=C(NC1CCC12CCCC2)c1nc(Nc2cc(F)nc(F)c2)cc2cn[nH]c12` (stereo not shown) [Compound P-19, 5-[(2,6-difluoro-4-pyridyl)amino]-N-spiro[3.4]octan-3-yl-1H-pyrazolo[3,4-c]pyridine-7-carboxamide] displayed a melting point of 168 to 180 °C. This compound yielded an inhibition of growth at 20 ppm in data set [1] of at least 80%.

As to `CC1(C)CCC1NC(=O)c1nc(Nc2cc(F)nc(F)c2)cc2cn[nH]c12` (stereo not shown) [Compound P-8, 5-[(2,6-difluoro-4-pyridyl)amino]-N-(2,2-dimethylcyclobutyl)-1H-pyrazolo[3,4-c]pyridine-7-carboxamide], the melting point fell in the range of 240 to 250 °C. The compound also had an inhibition of growth at 20 ppm in data set [1] of at least 80%.

Compound `CC1(C)CCC1NC(=O)c1nc(Nc2ccnc(F)c2)cc2cn[nH]c12` (stereo not shown) [Compound P-7, N-(2,2-dimethylcyclobutyl)-5-[(2-fluoro-4-pyridyl)amino]-1H-pyrazolo[3,4-c]pyridine-7-carboxamide] returned a melting point of 222 to 238 °C. The inhibition of growth at 20 ppm in data set [1] was at least 80%.

Compound `O=C(NC1CCC12CCCC2)c1nc(Nc2cncc(F)c2)cc2cn[nH]c12` (stereo not shown) [Compound P-15, 5-[(5-fluoro-3-pyridyl)amino]-N-spiro[3.4]octan-3-yl-1H-pyrazolo[3,4-c]pyridine-7-carboxamide] came in with a melting point of 185 to 195 °C.

As to `CCCCCNC(=O)c1nc(Nc2cc(F)nc(F)c2)cc2cc[nH]c12` [Compound P-11, 5-[(2,6-difluoro-4-pyridyl)amino]-N-pentyl-1H-pyrrolo[2,3-c]pyridine-7-carboxamide], the melting point is 220 to 233 °C.

In the case of `CCCCCNC(=O)c1nc(Nc2cncc(F)c2)cc2cc[nH]c12` [Compound P-10, 5-[(5-fluoro-3-pyridyl)amino]-N-pentyl-1H-pyrrolo[2,3-c]pyridine-7-carboxamide], the melting point is 158 to 162 °C.

Consider `CC1(C)CCC1NC(=O)c1nc(Nc2cnsc2)cc2cn[nH]c12` (stereo not shown) [Compound P-5, N-(2,2-dimethylcyclobutyl)-5-(isothiazol-4-ylamino)-1H-pyrazolo[3,4-c]pyridine-7-carboxamide], for which the melting point lay within 158 to 166 °C. This compound also yielded an inhibition of growth at 20 ppm in data set [1] of at least 80%.

As for `CCCCCNC(=O)c1nc(Nc2cncc(F)c2)cc2cn[nH]c12` [Compound P-13, 5-[(5-fluoro-3-pyridyl)amino]-N-pentyl-1H-pyrazolo[3,4-c]pyridine-7-carboxamide], the melting point fell in the range of 155 to 168 °C.

`O=C(NC1CCC12CCCC2)c1nc(Nc2cc(F)nc(F)c2)cc2cc[nH]c12` (stereo not shown) [Compound P-18, 5-[(2,6-difluoro-4-pyridyl)amino]-N-spiro[3.4]octan-3-yl-1H-pyrrolo[2,3-c]pyridine-7-carboxamide] registered a melting point of 170 to 178 °C. In data set [1], this compound registered an inhibition of growth at 20 ppm of at least 80%.

One may read the melting point as the temperature, or range, at which the solid turns liquid. A word on the inhibition of growth: it is the change of the read-out against control, counted positive when it falls. A high value points to a response far below the control.
